# Paper PMC6277767, “Broad and Region-Specific Impacts of the Synthetic Cannabinoid CP 55,940 in Adolescent and Adult Female Mouse Brains” (Frontiers in Molecular Neuroscience, 2018)
# System: CD1 female mouse brain lipidome
# Experiment: Brain-region lipid levels (HPLC/MS/MS lipidomics) 2 h after single i.p. 3 mg/kg CP 55,940 vs vehicle
# Format: in vivo
# Parameters: N-arachidonoyl phenylalanine level, Mean / N-stearoyl tryptophan level, Mean / N-stearoyl proline level, Mean / N-stearoyl leucine level, Mean / N-stearoyl phenylalanine level, Mean / N-stearoyl serine level, Mean / N-stearoyl methionine level, Mean: unit: moles per gram
# Conditions: thalamus
# Description: The Bloomington Institutional Animal Care and Use Committee of Indiana University reviewed and approved the animal procedures. Female mice from the CD1 strain were utilized to match our study examining THC’s effects on the brain lipidome ([Leishman et al., 2018]). Mice were given a single i.p. injection of either 3 mg/kg CP or 1:1:18 cremophor:ethanol:saline vehicle (please refer to the section “3 mg/kg CP Is Relevant for Synthetic Cannabinoid Abuse and Has Stronger Effects on the Female Mouse Brain Lipidome During Adolescence” for a justification of dose and use of female mice). Three different age groups were given injections: PND 35 and PND 50 adolescents, and adult mice (PND 113). At least eight mice in each age group received CP and at least eight received vehicle. Matching the THC study time course ([Leishman et al., 2018]), mice were sacrificed via rapid decapitation 2 h after injection. Brains were immediately removed and flash-frozen in liquid nitrogen, and then stored at -80°C until dissections were performed. Brains were dissected on an ice-cold dissection plate into the following regions: STR, HIPP, CER, THAL, CTX, HYP, MID, and STEM. These abbreviations for these brain areas will be used exclusively when discussing the results generated by these specific dissections. Each dissected area was immediately placed in liquid nitrogen and then stored at -80°C until used for lipid extraction.
# Tissue extracts were performed as previously described ([Bradshaw et al., 2006]; [Stuart et al., 2013]; [Raboune et al., 2014]; [Leishman et al., 2016a],[b], [2017], [2018]). First, samples were shock frozen in liquid nitrogen, weighed, and transferred to a centrifuge tube. The mass of the largest sample was multiplied by 50 to determine how many milliliters of HPLC-grade methanol (Fisher, Fair Lawn, NJ, United States) to add. Then, samples were spiked with 500 pmol deuterium-labeled NAGly (d8NAGly; Cayman Chemical, Ann Arbor, MI, United States). Samples were placed on ice in darkness for 2 h then individually homogenized and centrifuged at 19,000 × g for 20 min at 20°C. Supernatants were diluted with HPLC water (purified in house) to make a solution of 75% water, 25% supernatant. Lipids were partially purified on C18 solid phase extraction columns (Agilent, Palo Alto, CA, United States). A series of four elutions with 1.5 mL of 60%, 75%, 85%, and 100% methanol were collected ([Stuart et al., 2013]; [Leishman et al., 2016a],[b], [2018]).
# As previously described ([Bradshaw et al., 2006]; [Tan et al., 2006]; [Smoum et al., 2010]; [Stuart et al., 2013]; [Tortoriello et al., 2013]; [Raboune et al., 2014]; [Leishman et al., 2016a],[b], [2017], [2018]), samples were analyzed using an Applied Biosystems API 3000 triple quadrupole mass spectrometer with electrospray ionization (Foster City, CA, United States). Using an Agilent XDB-C18 reversed phase analytical column and optimized mobile phase gradients, 20 μL from each elution were chromatographed. Two Shimadzu 10ADvp pumps (Columbia, MD, United States) provided the pressure for gradient elution. Mobile phase A: 20% methanol, 80% water (v/v) and 1 mM ammonium acetate (Sigma, St. Louis, MO, United States). Mobile phase B: 100% methanol, 1 mM ammonium acetate. Every method run began with 0% mobile phase B, reached 100% mobile phase B flowing at 0.2 mL/min, and gradually returned to 0% mobile phase B.
# This screening library will be referred to as the lipidome when discussing data from this study. HPLC/MS/MS data were analyzed using Analyst software (Applied Biosystems) ([Bradshaw et al., 2006]; [Tan et al., 2006]; [Stuart et al., 2013]; [Tortoriello et al., 2013]; [Raboune et al., 2014]; [Leishman et al., 2016a],[b], [2017], [2018]). Chromatograms (Supplementary Figure 3) were generated by determining the retention time of analytes from the analytical column with a [M-1] or [M+1] parent peak and a fragmentation peak corresponding to the programmed values. […]
# [1] = PND 50 female mice, 3 mg/kg CP 55,940
# [2] = WT adult female mice, 3mg/kg CP 55,940
smiles,measurement,setting,value
"CCCCCCC(C)(C)c1ccc([C@@H]2C[C@H](O)CC[C@H]2CCCO)c(O)c1 [CP 55,940]",N-palmitoyl serine: Direction (relative to Veh),"PND 50, 3 mg/kg CP 55,940",↓
same,N-palmitoyl serine: Magnitude (x Veh level),"PND 50, 3 mg/kg CP 55,940",0.82 x Veh level
same,N-stearoyl serine: Direction (relative to Veh),"PND 50, 3 mg/kg CP 55,940",↓
same,N-stearoyl serine: Magnitude (x Veh level),"PND 50, 3 mg/kg CP 55,940",0.87 x Veh level
same,Oleic acid: Direction (relative to Veh),"PND 50, 3 mg/kg CP 55,940",↓
same,Oleic acid: Magnitude (x Veh level),"PND 50, 3 mg/kg CP 55,940",0.83 x Veh level
same,PGE2: Direction (relative to Veh),"PND 50, 3 mg/kg CP 55,940",↓
same,PGE2: Magnitude (x Veh level),"PND 50, 3 mg/kg CP 55,940",0.74 x Veh level
same,PGF2α: Direction (relative to Veh),"PND 50, 3 mg/kg CP 55,940",↓
same,PGF2α: Magnitude (x Veh level),"PND 50, 3 mg/kg CP 55,940",0.84 x Veh level
same,"2-arachidonoyl glycerol level, Mean",[1],2.19E-10
same,"2-linoleoyl glycerol level, Mean",[1],2.06E-10
same,"2-oleoyl glycerol level, Mean",[1],2.79E-09
same,"2-palmitoyl glycerol level, Mean",[1],1.02E-09
same,"6-ketoPGF1α level, Mean",[1],1.21E-11
same,"11-OH-THC level, Mean",[1],BDL
same,"11-nor-9-carboxyTHC level, Mean",[1],BDL
same,"Arachidonic acid level, Mean",[1],3.32E-10
same,"Cannabidiol level, Mean",[1],BDL
same,"Linoleic acid level, Mean",[1],2.28E-10
same,"N- stearoyl valine level, Mean",[1],1.2E-13
same,"N-arachidonoyl GABA level, Mean",[1],1.06E-11
same,"N-arachidonoyl dopamine level, Mean",[1],BDL
same,"N-arachidonoyl ethanolamine level, Mean",[1],3.67E-11
same,"N-arachidonoyl glycine level, Mean",[1],2.22E-12
same,"N-arachidonoyl phenylalanine level, Mean",[1],2.35E-13
same,"N-arachidonoyl proline level, Mean",[1],BDL
same,"N-arachidonoyl serine level, Mean",[1],9.47E-12
same,"N-arachidonoyl taurine level, Mean",[1],2.48E-11
same,"N-arachidonoyl tryptophan level, Mean",[1],BDL
same,"N-arachidonoyl tyrosine level, Mean",[1],3.46E-13
same,"N-docosahexaenoyl GABA level, Mean",[1],1.17E-12
same,"N-docosahexaenoyl ethanolamine level, Mean",[1],4.85E-11
same,"N-docosahexaenoyl glycine level, Mean",[1],2.76E-13
same,"N-docosahexaenoyl leucine level, Mean",[1],1.83E-13
same,"N-docosahexaenoyl proline level, Mean",[1],BDL
same,"N-docosahexaenoyl serine level, Mean",[1],1.8E-11
same,"N-docosahexaenoyl tryptophan level, Mean",[1],BDL
same,"N-docosahexaenoyl tyrosine level, Mean",[1],5.89E-13
same,"N-docosahexaenoyl valine level, Mean",[1],BDL
same,"N-linoleoyl GABA level, Mean",[1],6.3E-13
same,"N-linoleoyl ethanolamine level, Mean",[1],5.72E-11
same,"N-linoleoyl glycine level, Mean",[1],1.48E-13
same,"N-linoleoyl leucine level, Mean",[1],4.17E-14
same,"N-linoleoyl proline level, Mean",[1],BDL
same,"N-linoleoyl serine level, Mean",[1],6.59E-11
same,"N-linoleoyl tryptophan level, Mean",[1],BDL
same,"N-linoleoyl valine level, Mean",[1],BDL
same,"N-nervonoyl valine level, Mean",[1],BDL
same,"N-oleoyl GABA level, Mean",[1],4.02E-12
same,"N-oleoyl alanine level, Mean",[1],7.11E-13
same,"N-oleoyl dopamine level, Mean",[1],BDL
same,"N-oleoyl ethanolamine level, Mean",[1],9.26E-11
same,"N-oleoyl glycine level, Mean",[1],1.74E-12
same,"N-oleoyl leucine level, Mean",[1],5.99E-13
same,"N-oleoyl methionine level, Mean",[1],2.91E-13
same,"N-oleoyl phenylalanine level, Mean",[1],9.22E-13
same,"N-oleoyl proline level, Mean",[1],BDL
same,"N-oleoyl serine level, Mean",[1],1.27E-10
same,"N-oleoyl tryptophan level, Mean",[1],BDL
same,"N-oleoyl tyrosine level, Mean",[1],4.03E-13
same,"N-palmitoyl GABA level, Mean",[1],1.06E-11
same,"N-palmitoyl alanine level, Mean",[1],2.52E-12
same,"N-palmitoyl ethanolamine level, Mean",[1],7.34E-11
same,"N-palmitoyl glycine level, Mean",[1],9.61E-12
same,"N-palmitoyl leucine level, Mean",[1],1.53E-12
same,"N-palmitoyl methionine level, Mean",[1],1.27E-12
same,"N-palmitoyl phenylalanine level, Mean",[1],1.34E-12
same,"N-palmitoyl proline level, Mean",[1],BDL
same,"N-palmitoyl serine level, Mean",[1],2.63E-11
same,"N-palmitoyl tryptophan level, Mean",[1],BDL
same,"N-palmitoyl tyrosine level, Mean",[1],8.81E-13
same,"N-palmitoyl valine level, Mean",[1],1.92E-13
same,"N-stearoyl GABA level, Mean",[1],1.06E-11
same,"N-stearoyl alanine level, Mean",[1],5.6E-13
same,"N-stearoyl ethanolamine level, Mean",[1],3.31E-11
same,"N-stearoyl glycine level, Mean",[1],1.16E-12
same,"N-stearoyl leucine level, Mean",[1],1.04E-12
same,"N-stearoyl methionine level, Mean",[1],8.73E-13
same,"N-stearoyl phenylalanine level, Mean",[1],1.21E-12
same,"N-stearoyl proline level, Mean",[1],BDL
same,"N-stearoyl serine level, Mean",[1],4.06E-11
same,"N-stearoyl tryptophan level, Mean",[1],BDL
same,"N-stearoyl tyrosine level, Mean",[1],1.18E-13
same,"Oleic acid level, Mean",[1],3.18E-10
same,"PGE2 level, Mean",[1],8.74E-11
same,"THC level, Mean",[1],BDL
same,"2-arachidonoyl glycerol level, Mean",[2],3E-09
same,"2-linoleoyl glycerol level, Mean",[2],2.71E-10
same,"2-oleoyl glycerol level, Mean",[2],3.61E-09
same,"2-palmitoyl glycerol level, Mean",[2],8.84E-11
same,"6-ketoPGF1α level, Mean",[2],3.33E-11
same,"Arachidonic acid level, Mean",[2],9.32E-10
same,"Linoleic acid level, Mean",[2],4.92E-10
same,"N-arachidonoyl GABA level, Mean",[2],2.04E-11
same,"N-arachidonoyl alanine level, Mean",[2],9.44E-13
same,"N-arachidonoyl ethanolamine level, Mean",[2],1.69E-11
same,"N-arachidonoyl glycine level, Mean",[2],5.38E-13
same,"N-arachidonoyl phenylalanine level, Mean",[2],1.15E-13
same,"N-arachidonoyl taurine level, Mean",[2],5.3E-11
same,"N-arachidonoyl tyrosine level, Mean",[2],6.37E-13
same,"N-docosahexaenoyl GABA level, Mean",[2],9.36E-12
